Common to all, as to type: cell-based
The target of assay [1] is T1, CK1α (Homo sapiens, UniProt P48729+Q96SW2). Description: CK1α HiBiT assay in CK1a_HiBiT_Jurkat cells. Conditions: DC50 class, 16 hours, Nano-Glo HiBiT Lytic Detection, read-out: CK1α degradation classification. Here is the method:
CK1a_HiBiT_Jurkat cells were culture in RPMI 1640 medium (Gibco, 11875093) with 10% FBS under standard tissue culture conditions. Briefly, Compounds of the present disclosure was added to 30,000 cells in a white 96-well plate (9-point dose response, top concentration […], half-log serial dilution, final DMSO concentration 0.5%) and incubated for 16 hours. CK1a level was determined in along with the Nano-Glo HiBiT Lytic Detection system [Promega N3050] with final concentration of 1 x. The luminescence was normalized to that of DMSO-treated samples. DC50 values were obtained using three-parameter non-linear regressions using Prism (GraphPad). The compounds are classified based on DC50 values as follows. • A: DC50 is less than or equal to 1×10^−7; • B: DC50 is greater than 1×10^−7 & less than or equal to 1×10^−6; • C: DC50 is greater than 1×10^−6; • NA: not calculated (no activity detected, <25% viability reduction at 1 uM)
For orientation: The HiBiT peptide binds its large partner to form an active luciferase.

Assay [2] deals with MV-4-11 cells. Description: AML cell viability assay (RealTime-Glo). Conditions: Homo sapiens, read-out: Cell viability classification.
Assay [3] concerns the target T1, CK1α. Description: CK1α degradation, flow cytometry in MV4-11 cells. Conditions: % reduction of CK1α compared to DMSO, MV4-11 cells at 316 nM for 16 hours, read-out: CK1α degradation classification. Also on record: CK1α levels were determined in MV-4-11 cells using Jess (Protein Simple); host or cells: MV-4-11. On the technique in general: Flow cytometry measures light scatter and fluorescence of single cells or particles in a stream.

Where [4] appears, read: MV4-11, IC50 class, MV-4-11 cells, RealTime-Glo after 44 hrs of treatment (TABLE 5).
Where [5] appears, read: MV4-11, IC50 class, MV-4-11 cells, RealTime-Glo after 44 hrs of treatment (TABLE 3).

Drawing on US20250188069A1, “COMPOUNDS AND METHODS FOR DEGRADING CASEIN KINASE 1 ALPHA” (PIN THERAPEUTICS, INC., priority 2022, published 2025), this text covers DC50, IC50 and Dmax for 26 molecules.

Structures are written as SMILES. pIC50: −log10 of the molar value. Where a name gives a salt, the structure may show the parent alone. Read-outs that look alike come from different tables or passages of the source.

T1 sequence (P48729 whole entry): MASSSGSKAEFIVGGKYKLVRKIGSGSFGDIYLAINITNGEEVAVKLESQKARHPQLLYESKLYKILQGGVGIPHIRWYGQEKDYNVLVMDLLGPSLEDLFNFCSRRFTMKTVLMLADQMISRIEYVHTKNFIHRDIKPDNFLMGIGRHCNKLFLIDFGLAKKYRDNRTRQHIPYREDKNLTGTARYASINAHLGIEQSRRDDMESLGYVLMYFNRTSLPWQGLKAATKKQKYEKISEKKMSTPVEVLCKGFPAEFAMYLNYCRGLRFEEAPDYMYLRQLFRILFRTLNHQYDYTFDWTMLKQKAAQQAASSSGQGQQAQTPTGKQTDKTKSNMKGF
T1 sequence (Q96SW2 whole entry): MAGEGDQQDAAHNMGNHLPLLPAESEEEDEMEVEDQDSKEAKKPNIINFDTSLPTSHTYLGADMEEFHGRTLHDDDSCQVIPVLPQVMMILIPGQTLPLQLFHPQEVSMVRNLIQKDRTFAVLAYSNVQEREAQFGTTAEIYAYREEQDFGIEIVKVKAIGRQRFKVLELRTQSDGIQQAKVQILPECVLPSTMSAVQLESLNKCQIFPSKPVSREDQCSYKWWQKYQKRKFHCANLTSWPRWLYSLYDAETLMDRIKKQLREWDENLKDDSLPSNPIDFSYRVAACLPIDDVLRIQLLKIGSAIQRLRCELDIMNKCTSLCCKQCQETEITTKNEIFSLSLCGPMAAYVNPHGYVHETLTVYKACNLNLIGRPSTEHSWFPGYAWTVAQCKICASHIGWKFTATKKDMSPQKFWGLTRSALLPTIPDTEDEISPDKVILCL
T1 sequence (Q16531 whole entry partner): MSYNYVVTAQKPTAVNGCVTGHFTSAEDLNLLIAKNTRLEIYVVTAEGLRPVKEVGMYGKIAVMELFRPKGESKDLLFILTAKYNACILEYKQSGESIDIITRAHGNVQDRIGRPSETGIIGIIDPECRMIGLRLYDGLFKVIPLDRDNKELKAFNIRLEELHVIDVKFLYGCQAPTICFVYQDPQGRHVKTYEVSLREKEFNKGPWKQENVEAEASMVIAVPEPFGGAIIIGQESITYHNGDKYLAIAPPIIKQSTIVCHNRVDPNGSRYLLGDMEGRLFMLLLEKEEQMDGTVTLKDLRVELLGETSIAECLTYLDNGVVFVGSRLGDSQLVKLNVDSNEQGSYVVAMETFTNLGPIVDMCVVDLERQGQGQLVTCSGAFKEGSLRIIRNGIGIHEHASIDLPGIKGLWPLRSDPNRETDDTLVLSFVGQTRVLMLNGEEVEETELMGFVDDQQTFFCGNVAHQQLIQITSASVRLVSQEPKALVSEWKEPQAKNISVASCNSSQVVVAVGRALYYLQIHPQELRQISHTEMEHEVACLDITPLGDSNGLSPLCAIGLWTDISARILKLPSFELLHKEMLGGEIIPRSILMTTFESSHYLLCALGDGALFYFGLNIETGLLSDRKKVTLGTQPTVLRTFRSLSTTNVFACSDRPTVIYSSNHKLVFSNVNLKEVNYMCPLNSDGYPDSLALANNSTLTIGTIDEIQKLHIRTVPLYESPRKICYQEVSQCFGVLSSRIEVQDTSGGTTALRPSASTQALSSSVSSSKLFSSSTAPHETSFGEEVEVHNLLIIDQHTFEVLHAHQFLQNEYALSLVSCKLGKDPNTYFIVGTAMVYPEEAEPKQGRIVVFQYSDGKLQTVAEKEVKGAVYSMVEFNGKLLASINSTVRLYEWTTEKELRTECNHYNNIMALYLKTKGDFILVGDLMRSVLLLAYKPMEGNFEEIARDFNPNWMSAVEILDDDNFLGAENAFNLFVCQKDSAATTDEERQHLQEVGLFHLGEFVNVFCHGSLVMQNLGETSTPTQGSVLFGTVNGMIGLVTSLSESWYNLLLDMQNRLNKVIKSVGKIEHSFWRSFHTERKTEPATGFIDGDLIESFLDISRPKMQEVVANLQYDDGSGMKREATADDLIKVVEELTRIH

For the molecule `CN(CCC(F)(F)F)[C@H]1CC[C@@H](N(CCC2CC2)c2cccc3c2CN(C2CCC(=O)NC2=O)C3=O)CC1` (some centres unmarked) [Compound 682A], the DC50 in assay [1] was in the range of 100 to 1000 nM. With `COCCN(C)[C@H]1CC[C@H](N(CCC2CC2)c2cccc3c2CN(C2CCC(=O)NC2=O)C3=O)CC1` (some centres unmarked) [Compound 680], the DC50 in assay [1] is at most 100 nM. Further, in assay [2] (setting [4]), the pIC50 is 6.00 to 7.00.

As to `O=C1CCC(N2Cc3c(cccc3N(CC3CC(F)(F)C3)[C@H]3CC[C@@H](NCC4(C(F)(F)F)CC4)CC3)C2=O)C(=O)N1` (some centres unmarked) [Compound 655A, 3-(4-{[(3,3-difluorocyclobutyl)methyl][(1s,4s)-4-({[1-(trifluoromethyl)cyclopropyl]methyl}amino)cyclohexyl]amino}-1-oxo-3H-isoindol-2-yl)piperidine-2,6-dione], in assay [1], the DC50 is over 1000 nM. Regarding `O=C1CCC(N2Cc3c(cccc3N(CCC3CC3)[C@H]3CC[C@@H](N4CCOCC4)CC3)C2=O)C(=O)N1` (some centres unmarked) [Compound 674A, 3-{4-[(2-cyclopropylethyl)[(1s,4s)-4-(morpholin-4-yl)cyclohexyl]amino]-1-oxo-3H-isoindol-2-yl}piperidine-2,6-dione], the DC50 in assay [1] lay within 100 to 1000 nM. Same read-out and setting: as for `CN(CCCC(F)(F)F)[C@H]1CC[C@@H](N(CCC2CC2)c2cccc3c2CN(C2CCC(=O)NC2=O)C3=O)CC1` (some centres unmarked) [Compound 681A, 3-{4-[(2-cyclopropylethyl)[(1s,4s)-4-[methyl(4,4,4-trifluorobutyl)amino]cyclohexyl]amino]-1-oxo-3H-isoindol-2-yl}piperidine-2,6-dione], the figure is 100 to 1000 nM. As for `O=C1CCC(N2Cc3c(cccc3N(CCC3CC3)[C@H]3CC[C@H](N4CCC(C(F)(F)F)C4)CC3)C2=O)C(=O)N1` (some centres unmarked) [Compound 672, 3-{4-[(2-cyclopropylethyl)[(1r,4r)-4-[3-(trifluoromethyl)pyrrolidin-1-yl]cyclohexyl]amino]-1-oxo-3H-isoindol-2-yl}piperidine-2,6-dione; trifluoroacetic acid], in assay [1], the DC50 was at most 100 nM. Moreover, in assay [2] (setting [4]), the pIC50 was 6.00 to 7.00.

Take `O=C1CCC(N2Cc3c(cccc3N(CCC3CC3)[C@H]3CC[C@@H](NCCCC(F)(F)F)CC3)C2=O)C(=O)N1` (some centres unmarked) [Compound 642A]: the DC50 in assay [1] is at most 100 nM. Also, in assay [2] (setting [4]), the pIC50 is under 6.00. `COCCN(C)[C@H]1CC[C@@H](N(CCC2CC2)c2cccc3c2CN(C2CCC(=O)NC2=O)C3=O)CC1` (some centres unmarked) [Compound 680A]: the DC50 in assay [1] was in the range of 100 to 1000 nM. As to `O=C1CCC(N2Cc3c(cccc3N(CCC3CC3)[C@H]3CC[C@@H](N4CCC(F)(F)C4)CC3)C2=O)C(=O)N1` (some centres unmarked) [Compound 670A], the DC50 in assay [1] was 100 to 1000 nM. Same read-out and setting: as for `CC1(C)CC(CN(c2cccc3c2CN(C2CCC(=O)NC2=O)C3=O)[C@H]2CC[C@@H](NCC3(C(F)(F)F)CC3)CC2)C1` (some centres unmarked) [Compound 657A, 3-(4-{[(3,3-dimethylcyclobutyl)methyl][(1s,4s)-4-({[1-(trifluoromethyl)cyclopropyl]methyl}amino)cyclohexyl]amino}-1-oxo-3H-isoindol-2-yl)piperidine-2,6-dione; bis(trifluoroacetic acid)], the figure is over 1000 nM; as for `O=C1CCC(N2Cc3c(cccc3N(CCC3CC3)[C@H]3CC[C@@H](N4CCCC4)CC3)C2=O)C(=O)N1` (some centres unmarked) [Compound 669A], 100 to 1000 nM. Same read-out and setting: in the case of `O=C1CCC(N2Cc3c(cccc3N(CC3CC4(CCC4)C3)[C@H]3CC[C@@H](NCC4(C(F)(F)F)CC4)CC3)C2=O)C(=O)N1` (some centres unmarked) [Compound 656A, 3-(1-oxo-4-{[(1s,4s)-4-({[1-(trifluoromethyl)cyclopropyl]methyl}amino)cyclohexyl]({spiro[3.3]heptan-2-ylmethyl})amino}-3H-isoindol-2-yl)piperidine-2,6-dione; trifluoroacetic acid] it was over 1000 nM; in that of `O=C1CCC(N2Cc3c(cccc3N(CC3CC(F)(F)C3)[C@H]3CC[C@@H](NCCC(F)(F)F)CC3)C2=O)C(=O)N1` (some centres unmarked) [Compound 650A, 3-(4-{[(3,3-difluorocyclobutyl)methyl][(1s,4s)-4-[(3,3,3-trifluoropropyl)amino]cyclohexyl]amino}-1-oxo-3H-isoindol-2-yl)piperidine-2,6-dione], over 1000 nM. On to `CCCCCN(c1cccc2c1CN(C1CCC(=O)NC1=O)C2=O)[C@H]1CC[C@@H](C(=O)NC)CC1` (stereo partly drawn) [Compound 308, (1S,4S)-4-((2-(2,6-dioxopiperidin-3-yl)-1-oxoisoindolin-4-yl)(pentyl)amino)-N-methylcyclohexane-1-carboxamide], for which the pIC50 in assay [2] (setting [5]) is over 7.00. The Dmax at 0.316 µM in assay [3] is over 75%. In the case of `O=C1CCC(N2Cc3c(cccc3N(CCC3CC3)[C@H]3CC[C@@H](N[C@H]4CC[C@@H]4C(F)(F)F)CC3)C2=O)C(=O)N1` (stereo partly drawn) [Compound 675A, 3-{4-[(2-cyclopropylethyl)[(1s,4s)-4-{[(1S,2S)-2-(trifluoromethyl)cyclobutyl]amino}cyclohexyl]amino]-1-oxo-3H-isoindol-2-yl}piperidine-2,6-dione; bis(trifluoroacetic acid)], the DC50 in assay [1] lay in the range of 100 to 1000 nM. On to `CCCCCN(c1cccc2c1CN(C1CCC(=O)NC1=O)C2=O)[C@H]1CC[C@H](NC(C)C)CC1` (some centres unmarked) [Compound 310, 3-(4-(((1r,4r)-4-(isopropylamino)cyclohexyl)(pentyl)amino)-1-oxoisoindolin-2-yl)piperidine-2,6-dione, HCl], for which the pIC50 in assay [2] (setting [5]) is over 7.00. In addition, the Dmax at 0.316 µM in assay [3] fell in the range of 50 to 75%. As to `COCCN[C@H]1CC[C@H](N(CCC2CC2)c2cccc3c2CN(C2CCC(=O)NC2=O)C3=O)CC1` (some centres unmarked) [Compound 542, 3-{4-[(2-cyclopropylethyl)[(1r,4r)-4-[(2-methoxyethyl)amino]cyclohexyl]amino]-1-oxo-3H-isoindol-2-yl}piperidine-2,6-dione], the pIC50 in assay [2] (setting [5]) was over 7.00. The Dmax at 0.316 µM in assay [3] was over 75%. `O=C1CCC(N2Cc3c(cccc3N(CCC3CC3)[C@H]3CC[C@@H](N4CCC(C(F)(F)F)C4)CC3)C2=O)C(=O)N1` (some centres unmarked) [Compound 672A, 3-{4-[(2-cyclopropylethyl)[(1s,4s)-4-[3-(trifluoromethyl)pyrrolidin-1-yl]cyclohexyl]amino]-1-oxo-3H-isoindol-2-yl}piperidine-2,6-dione; trifluoroacetic acid]: the DC50 in assay [1] lay within 100 to 1000 nM.

For `N[C@@H]1CC[C@@H](N(CC2CC2)c2cccc3c2CN(C2CCC(=O)NC2=O)C3=O)C[C@H]1F` (stereo partly drawn) [Compound 535, 3-(4-(((1R,3R,4R)-4-amino-3-fluorocyclohexyl)(cyclopropylmethyl)amino)-1-oxoisoindolin-2-yl)piperidine-2,6-dione; formic acid], the pIC50 in assay [2] (setting [5]) is over 7.00. Besides, the Dmax at 0.316 µM in assay [3] was 50 to 75%. Turning to `O=C1CCC(N2Cc3c(cccc3N(CCC3CC3)[C@H]3CC[C@@H](N4CCC(F)C4)CC3)C2=O)C(=O)N1` (some centres unmarked) [Compound 671A, 3-{4-[(2-cyclopropylethyl)[(1s,4s)-4-(3-fluoropyrrolidin-1-yl)cyclohexyl]amino]-1-oxo-3H-isoindol-2-yl}piperidine-2,6-dione], in assay [1], the DC50 lay in the range of 100 to 1000 nM.

For the molecule `CCCCCN(CCCCNCCCC)c1cccc2c1CN(C1CCC(=O)NC1=O)C2=O` (centres unmarked) [Compound 166, 3-(4-((4-(butylamino)butyl)(pentyl)amino)-1-oxoisoindolin-2-yl)piperidine-2,6-dione, HCl], the pIC50 in assay [2] (MV4-11, 44 h) is 6.00 to 7.00. Moreover, in assay [3], the Dmax at 0.316 µM was over 75%. Take `O=C1CCC(N2Cc3c(cccc3N(CC3CC3)[C@H]3CC[C@H](NCCC(F)(F)F)CC3)C2=O)C(=O)N1` (some centres unmarked) [Compound 533, 3-(4-((cyclopropylmethyl)((1r,4r)-4-((3,3,3-trifluoropropyl)amino)cyclohexyl)amino)-1-oxoisoindolin-2-yl)piperidine-2,6-dione]: the pIC50 in assay [2] (setting [5]) was over 7.00. In addition, the Dmax at 0.316 µM in assay [3] was over 75%. As for `O=C1CCC(N2Cc3c(cccc3N(CCC3CC3)[C@H]3CC[C@@H](N4CC(C(F)(F)F)C4)CC3)C2=O)C(=O)N1` (some centres unmarked) [Compound 673A], the DC50 in assay [1] was in the range of 100 to 1000 nM. On to `O=C1CCC(N2Cc3c(cccc3N(CCC3CC3)[C@H]3CC[C@@H](NCC(F)F)CC3)C2=O)C(=O)N1` (some centres unmarked) [Compound 539A, 3-{4-[(2-cyclopropylethyl)[(1r,4r)-4-[(2,2-difluoroethyl)amino]cyclohexyl]amino]-1-oxo-3H-isoindol-2-yl}piperidine-2,6-dione], for which the pIC50 in assay [2] (setting [5]) was over 7.00. For the same molecule, the Dmax at 0.316 µM in assay [3] was over 75%. Consider `CCCCCN(c1cccc2c1CN(C1CCC(=O)NC1=O)C2=O)[C@H]1CCC[C@@H](CN)C1` (stereo partly drawn) [Compound 330, 3-(4-(((1S,3R)-3-(aminomethyl)cyclohexyl)(pentyl)amino)-1-oxoisoindolin-2-yl)piperidine-2,6-dione, HCl], for which, in assay [2] (setting [5]), the pIC50 is over 7.00. Further, the Dmax at 0.316 µM in assay [3] was over 75%.

Regarding `O=C1CCC(N2Cc3c(cccc3N(CCCC(F)(F)F)[C@H]3CC[C@H](NCCC(F)(F)F)CC3)C2=O)C(=O)N1` (some centres unmarked) [Compound 513, 3-(1-oxo-4-((4,4,4-trifluorobutyl)((1r,4r)-4-((3,3,3-trifluoropropyl)amino)cyclohexyl)amino)isoindolin-2-yl)piperidine-2,6-dione], the pIC50 in assay [2] (setting [5]) was 6.00 to 7.00. Moreover, the Dmax at 0.316 µM in assay [3] was over 75%.
